In general, IC50 refers to the concentration at which inhibition is half-maximal.

The results in this text go back to patent publication US8530460B2, “Azetidine derivatives” (Boehringer Ingelheim International GmbH, priority 2011, dated 2013).

SMILES strings stand for the structures.

In the first experiment the target is human ACC2 (Homo sapiens (Human), UniProt O00763). As to the kind of experiment: ACC2 assay (spectrophotometric 384 well assay, NADH-linked coupled lactate dehydrogenase/pyruvate kinase). In kind it is biochemical.
Chain of human ACC2 (O00763 129-2458): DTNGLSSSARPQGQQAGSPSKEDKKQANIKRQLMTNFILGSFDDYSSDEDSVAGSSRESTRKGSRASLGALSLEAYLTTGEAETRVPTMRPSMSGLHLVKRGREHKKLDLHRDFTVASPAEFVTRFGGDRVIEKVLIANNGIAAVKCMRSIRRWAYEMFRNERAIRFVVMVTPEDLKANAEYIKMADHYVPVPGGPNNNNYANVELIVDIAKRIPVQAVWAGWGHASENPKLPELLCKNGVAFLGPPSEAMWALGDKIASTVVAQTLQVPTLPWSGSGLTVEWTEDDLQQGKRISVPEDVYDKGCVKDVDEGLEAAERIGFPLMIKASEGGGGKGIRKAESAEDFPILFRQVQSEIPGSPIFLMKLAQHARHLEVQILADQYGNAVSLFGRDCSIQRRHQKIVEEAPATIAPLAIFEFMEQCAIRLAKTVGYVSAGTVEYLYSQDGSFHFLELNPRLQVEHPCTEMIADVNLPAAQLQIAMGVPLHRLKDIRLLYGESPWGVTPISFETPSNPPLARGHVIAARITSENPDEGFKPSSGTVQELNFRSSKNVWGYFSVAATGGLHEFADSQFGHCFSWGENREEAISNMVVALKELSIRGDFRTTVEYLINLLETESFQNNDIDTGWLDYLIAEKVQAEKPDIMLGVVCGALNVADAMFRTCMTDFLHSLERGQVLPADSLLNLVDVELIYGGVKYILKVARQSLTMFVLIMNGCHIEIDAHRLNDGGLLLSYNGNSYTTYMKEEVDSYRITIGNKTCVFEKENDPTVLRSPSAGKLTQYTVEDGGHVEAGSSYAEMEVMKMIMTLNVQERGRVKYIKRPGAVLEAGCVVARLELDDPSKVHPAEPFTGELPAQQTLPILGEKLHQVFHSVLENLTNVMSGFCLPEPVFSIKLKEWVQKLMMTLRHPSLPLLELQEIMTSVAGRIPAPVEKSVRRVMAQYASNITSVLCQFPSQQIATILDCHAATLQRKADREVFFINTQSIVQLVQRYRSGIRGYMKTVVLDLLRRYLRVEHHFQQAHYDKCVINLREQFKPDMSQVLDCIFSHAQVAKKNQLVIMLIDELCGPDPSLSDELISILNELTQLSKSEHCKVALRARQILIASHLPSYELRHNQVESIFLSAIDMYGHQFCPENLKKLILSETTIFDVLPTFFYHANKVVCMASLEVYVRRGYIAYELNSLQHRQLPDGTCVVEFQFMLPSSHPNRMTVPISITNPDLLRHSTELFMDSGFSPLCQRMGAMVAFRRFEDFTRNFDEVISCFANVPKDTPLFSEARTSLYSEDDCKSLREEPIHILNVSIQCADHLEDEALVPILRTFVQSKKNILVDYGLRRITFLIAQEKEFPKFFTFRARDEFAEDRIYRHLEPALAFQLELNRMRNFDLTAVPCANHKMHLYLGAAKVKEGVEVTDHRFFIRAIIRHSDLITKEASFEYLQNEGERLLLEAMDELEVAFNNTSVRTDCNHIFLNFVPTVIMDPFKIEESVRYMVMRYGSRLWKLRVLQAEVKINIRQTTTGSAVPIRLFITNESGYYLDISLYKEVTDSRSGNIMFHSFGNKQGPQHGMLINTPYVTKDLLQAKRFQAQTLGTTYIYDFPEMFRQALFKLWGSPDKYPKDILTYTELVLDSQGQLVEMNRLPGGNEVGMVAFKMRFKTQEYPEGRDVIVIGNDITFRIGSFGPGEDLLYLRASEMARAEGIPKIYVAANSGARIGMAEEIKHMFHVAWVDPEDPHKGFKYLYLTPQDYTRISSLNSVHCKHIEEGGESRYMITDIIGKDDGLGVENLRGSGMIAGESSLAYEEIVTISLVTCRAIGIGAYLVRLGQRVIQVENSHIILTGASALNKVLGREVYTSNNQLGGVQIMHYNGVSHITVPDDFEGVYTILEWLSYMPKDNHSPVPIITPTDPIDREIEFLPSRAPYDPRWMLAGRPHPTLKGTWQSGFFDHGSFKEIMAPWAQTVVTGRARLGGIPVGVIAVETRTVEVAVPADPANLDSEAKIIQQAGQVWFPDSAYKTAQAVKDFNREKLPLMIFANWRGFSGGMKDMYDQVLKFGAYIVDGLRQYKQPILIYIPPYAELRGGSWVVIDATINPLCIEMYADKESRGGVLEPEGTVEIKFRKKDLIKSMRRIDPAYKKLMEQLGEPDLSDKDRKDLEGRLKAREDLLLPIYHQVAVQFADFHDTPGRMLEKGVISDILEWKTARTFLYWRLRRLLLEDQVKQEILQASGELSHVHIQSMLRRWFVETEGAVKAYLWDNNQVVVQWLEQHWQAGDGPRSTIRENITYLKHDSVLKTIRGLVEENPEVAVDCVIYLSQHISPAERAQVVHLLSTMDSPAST
Details: not given
As to the method:
Spectrophotometric 384 Well Assay
Malonyl CoA formation by acetyl CoA carboxylases is stoichometrically linked to the consumption of ATP. ACC2 activity is measured in a NADH-linked kinetic method measuring ADP generated during the ACC reaction using a coupled lactate dehydrogenase/pyruvate kinase reaction.
For biological testing, a human ACC2 construct which lacks the 128 amino acids at the N-terminus for increased solubility (nt 385-6966 in Genbank entry AJ575592) is cloned. The protein is then expressed in insect cells using a baculoviral expression system. Protein purification is performed by anion exchange.
All compounds are dissolved in dimethyl sulfoxide (DMSO) to a concentration of 10 mM.
Assay reactions are then carried out in 384-well plates, with hACC2 in an appropriate dilution and at final assay concentrations (f.c.) of 100 mM Tris (pH 7.5), 10 mM trisodium citrate, 25 mM KHCO3, 10 mM MgCl2, 0.5 mg/ml BSA, 3.75 mM reduced L-glutathione, 15 U/ml lactate dehydrogenase, 0.5 mM phosphoenolpyruvate, 15 U/ml pyruvate kinase, compounds at different concentrations at final DMSO concentrations of 1%.
The enzymatic reaction is then started by addition of a mixture of NADH, acetyl Coenzyme A (both 200 μM f.c.) and ATP (500 uM f.c.). The decrease of the optical density (slope S) is then determined at 25° C. at a wavelength of 340 nm over 15 minutes in a spectrophotometric reader.
Each assay microtiter plate contains wells with vehicle instead of compound as controls for the non-inhibited enzyme (100% CTL; ‘HIGH’) and wells without acetyl-CoA as controls for non-specific NADH degradation (0% CTL; ‘LOW’).
The slope S is used for calculation of % CTL=(S(compound)−S(‘LOW’))/(S(‘HIGH’)—S(‘LOW’))*100. Compounds will give values between 100% CTL (no inhibition) and 0% CTL (complete inhibition).
For IC50 value determination, the sample slope in the presence of the test compound after subtraction of the low controls (S(compound)−S(‘LOW’)) are used.
An IC50 value is derived from the compound slopes at different dosages after subtraction of the low controls (S(compound)−S(‘LOW’)) by non-linear regression curve fitting (equation y=(A+((B−A)/(1+((C/x)^D))))).
`CC(=O)N[C@@H](C)c1ccc(OC2CN(c3ccc(OCC4CC4)nc3)C2)cc1` [Example 2.1, (S)—N-(1-(4-(1-(6-(Cyclopropylmethoxy)Pyridin-3-yl)azetidin-3-yloxy)phenyl)ethyl)-acetamide] displayed an IC50 of 880 nM.

The experiment is the same for the next values; noted with them: hACC2 construct lacking 128 N-terminal amino acids; 25° C., 340 nm, 15 minutes.
The molecule `CCOc1cc(N2CC(Oc3ccc([C@H](C)NC(C)=O)cc3)C2)c(F)cn1` [Example 1.62] showed an IC50 of 2910 nM. Molecule `CC(=O)N[C@@H](C)c1ccc(OC2CN(c3ccc(OCC4CC4)cc3F)C2)cc1` [Example 2.2] returned an IC50 of 60 nM.

`CCOc1ccc(N2CC(Oc3ccc([C@H](C)NC(C)=O)cc3)C2)c(F)c1` [Example 2.3] had an IC50 of 240 nM. For the molecule `CC(=O)N[C@@H](C)c1ccc(OC2CN(c3ccc(OC4CC4)cc3OC3CC3)C2)cc1` [Example 2.4], the IC50 was determined as 6140 nM. Turning to `CCCOc1ccc(N2CC(Oc3ccc([C@H](C)NC(C)=O)cc3)C2)c(C)c1` [Example 2.5], the IC50 was 170 nM. As to `CCCOc1ccc(N2CC(Oc3ccc([C@H](C)NC(C)=O)cc3)C2)c(Cl)c1` [Example 2.6], the half-inhibitory concentration (IC50) came to 90 nM.

`CC(=O)N[C@@H](C)c1ccc(OC2CN(c3ccnc(OC(C)C)c3)C2)cc1` [Example 2.7] had an IC50 of 2060 nM. Compared with the last molecule, the IC50 is about 23-fold higher.

In turn, `CC(=O)N[C@@H](C)c1ccc(OC2CN(c3ccnc(Oc4ccccc4)c3)C2)cc1` [Example 2.8] displayed an IC50 of 4100 nM. On to `CC(=O)N[C@@H](C)c1ccc(OC2CN(c3ccnc(Oc4cncnc4)c3)C2)cc1` [Example 2.9], for which it took 10600 nM to reach half-maximal inhibition (IC50).

`CCOc1ccc(N2CC(Oc3ccc([C@H](C)NC(=O)C4CC4)cc3)C2)cc1` [Example 2.10] returned an IC50 of 140 nM. `CCCOc1ccnc(N2CC(Oc3ccc([C@H](C)NC(C)=O)cc3)C2)c1` [Example 2.12] had an IC50 of 4500 nM. `CC(=O)N[C@@H](C)c1ccc(OC2CN(c3ncc(Br)cn3)C2)cc1` [Example 3.1, (S)—N-(1-(4-(1-(5-bromopyrimidin-2-yl)azetidin-3-yloxy)phenyl)ethyl)acetamide]: 210 nM corresponded to half-maximal inhibition (IC50). Molecule `COc1cnc(N2CC(Oc3ccc([C@H](C)NC(C)=O)cc3)C2)nc1` [Example 3.2] gave an IC50 of 1120 nM.

`CCCc1cnc(N2CC(Oc3ccc(C(C)NC(C)=O)cc3)C2)nc1` (stereo not drawn) [Example 3.3] yielded an IC50 of 320 nM.

The molecule `COc1ccc(-c2cnc(N3CC(Oc4ccc(C(C)NC(C)=O)cc4)C3)nc2)cc1` (stereo not drawn) [Example 3.4] had an IC50 of 1470 nM. On the same count and under the same terms, then `C[C@H](NC(=O)C1CC1)c1ccc(OC2CN(c3ncc(C4CC4)cn3)C2)cc1` [Example 3.5], with 200 nM; and `C[C@H](NC(=O)C1CC1)c1ccc(OC2CN(c3ncc(Br)cn3)C2)cc1` [Example 3.6], with 3880 nM; and `C[C@H](NC(=O)N(C)C)c1ccc(OC2CN(c3ncc(Br)cn3)C2)cc1` [Example 3.7], with 470 nM. As to `CC(=O)N[C@@H](C)c1ccc(OC2CN(c3nnc(-c4ccccc4)s3)C2)cc1` [Example 3.9], the IC50 is 3820 nM. This IC50 is about 8.1-fold higher than that of the molecule before. As to `CC(=O)N[C@@H](C)c1ccc(OC2CN(c3ccc4ccccc4n3)C2)cc1` [Example 4.2], half-maximal inhibition (IC50) required 2040 nM. On the same count and under the same terms, to `CC(=O)N[C@@H](C)c1ccc(OC2CN(c3nc4ccccc4o3)C2)cc1` [Example 4.3] belongs 480 nM. With `CC(=O)N[C@@H](C)c1ccc(OC2CN(c3cc(C(F)(F)F)cc(C)n3)C2)cc1` [Example 4.4], the IC50 came out at 3990 nM. In turn, `CC(=O)N[C@@H](C)c1ccc(OC2CN(c3ccc(C(C)C)cn3)C2)cc1` [Example 4.5] showed an IC50 of 2450 nM. Against the preceding molecule, the IC50 is about 1.6-fold lower. As to `CC(=O)N[C@@H](C)c1ccc(OC2CN(c3nccc4ccccc34)C2)cc1` [Example 4.6], the IC50 was determined as 6230 nM.

Molecule `CC(=O)N[C@@H](C)c1ccc(OC2CN(c3cc(Cl)ccn3)C2)cc1` [Example 4.7] gave an IC50 of 3470 nM. For the molecule `CC(=O)N[C@@H](C)c1ccc(OC2CN(c3ccc(-c4ccccc4)cn3)C2)cc1` [Example 4.8], the IC50 was determined as 240 nM. The molecule `CC(=O)N[C@@H](C)c1ccc(OC2CN(c3ccnc(C(F)(F)F)n3)C2)cc1` [Example 4.9] showed an IC50 of 720 nM. Molecule `CC(=O)N[C@@H](C)c1ccc(OC2CN(c3nccc(C(F)(F)F)c3F)C2)cc1` [Example 4.10] displayed a half-inhibitory concentration (IC50) of 370 nM. This IC50 lies about 1.9-fold lower than the previous one. The same measure, in the same setting: then `CCOc1cccc(N2CC(Oc3ccc([C@H](C)NC(C)=O)cc3)C2)n1` [Example 4.11], with 3620 nM; and `CC(=O)N[C@@H](C)c1ccc(OC2CN(c3ccc(C4(C#N)CC4)cn3)C2)cc1` [Example 4.12], with 1060 nM; and `CC(=O)N[C@@H](C)c1ccc(OC2CN(c3nc4ccccc4s3)C2)cc1` [Example 4.13], with 250 nM. In the case of `CC(=O)N[C@@H](C)c1ccc(OC2CN(c3cc(C(F)(F)F)ncn3)C2)cc1` [Example 4.14], the IC50 came out at 6110 nM.

Turning to `CC(=O)N[C@@H](C)c1ccc(OC2CN(c3ccc4cc(Cl)ccc4n3)C2)cc1` [Example 4.15], the IC50 was found to be 690 nM. Take `CC(=O)N[C@@H](C)c1ccc(OC2CN(c3nccc(C(F)(F)F)n3)C2)cc1` [Example 4.16]: the IC50 was 470 nM. This IC50 and that of the molecule before are within 1.5-fold of each other. `CC(=O)N[C@@H](C)c1ccc(OC2CN(c3ccc(Br)cn3)C2)cc1` [Example 4.17] had an IC50 of 290 nM. On to `CC(=O)N[C@@H](C)c1ccc(OC2CN(c3cc(Br)ccn3)C2)cc1` [Example 4.18], for which it took 1800 nM to reach half-maximal inhibition (IC50). This IC50 is about 6.2-fold higher than that of the molecule before. `CC(=O)N[C@@H](C)c1ccc(OC2CN(c3ccc(C(F)(F)F)cn3)C2)cc1` [Example 4.19]: the half-inhibitory concentration (IC50) came to 200 nM.

In turn, `CC(=O)N[C@@H](C)c1ccc(OC2CN(c3cc(C(F)(F)F)ccn3)C2)cc1` [Example 4.20] returned an IC50 of 770 nM. Regarding `CC(=O)N[C@@H](C)c1ccc(OC2CN(c3cccc(C(F)(F)F)n3)C2)cc1` [Example 4.21], the IC50 stood at 410 nM. Regarding `COc1ccc2nc(N3CC(Oc4ccc([C@H](C)NC(C)=O)cc4)C3)ccc2c1` [Example 4.22], the IC50 stood at 450 nM. This IC50 and that of the molecule before are within 1.5-fold of each other. In turn, `CC(=O)N[C@@H](C)c1ccc(OC2CN(c3ncc4nc(-c5ccccc5)oc4n3)C2)cc1` [Example 4.23] yielded an IC50 of 1180 nM. Compared with the last molecule, the IC50 is about 2.6-fold higher. `CC(=O)N[C@@H](C)c1ccc(OC2CN(c3ncc(Cl)cn3)C2)cc1` [Example 4.24] registered an IC50 of 390 nM. As for `CC(=O)N[C@@H](C)c1ccc(OC2CN(c3noc4ccccc34)C2)cc1` [Example 4.25], the midpoint of inhibition, the IC50, lay at 750 nM. The same measure, in the same setting: then `CC(=O)N[C@@H](C)c1ccc(OC2CN(c3ncc4nc(-c5ccsc5)oc4n3)C2)cc1` [Example 4.26], with 13300 nM.

Consider `CC(=O)N[C@@H](C)c1ccc(OC2CN(c3ncc(C(C)(C)C)cn3)C2)cc1` [Example 4.27], for which the IC50 worked out at 570 nM. `CC(=O)N[C@@H](C)c1ccc(OC2CN(c3cnc4ccccc4n3)C2)cc1` [Example 4.28]: half-maximal inhibition (IC50) was put at 360 nM.

On to `CC(=O)N[C@@H](C)c1ccc(OC2CN(c3ccnc(C(F)(F)F)c3)C2)cc1` [Example 4.29], for which the midpoint of inhibition, the IC50, lay at 1170 nM. For `CC(=O)N[C@@H](C)c1ccc(OC2CN(c3ncc(C(F)(F)F)cc3F)C2)cc1` [Example 4.31], the IC50 turned out to be 190 nM. This IC50 lies about 6.2-fold lower than the previous one.

In turn, `CC(=O)N[C@@H](C)c1ccc(OC2CN(c3ccc(Cl)c(C(F)(F)F)n3)C2)cc1` [Example 4.32] came in with an IC50 of 100 nM. On to `CCOC(=O)c1cnc(N2CC(Oc3ccc([C@H](C)NC(C)=O)cc3)C2)nc1C(F)(F)F` [Example 4.33], for which 1730 nM corresponded to half-maximal inhibition (IC50). Compared with the last molecule, the IC50 is about 17-fold higher. With `CC(=O)N[C@@H](C)c1ccc(OC2CN(c3ncc(OC(C)C)cn3)C2)cc1` [Example 4.34], the IC50 was determined as 940 nM. Take `CC(=O)N[C@@H](C)c1ccc(OC2CN(c3ccc(Br)c(C#N)n3)C2)cc1` [Example 4.35]: it took 1110 nM to reach half-maximal inhibition (IC50). The IC50 values of the last two molecules are within 1.5-fold of each other.

With `CCOC(=O)c1cc(C#N)c(N2CC(Oc3ccc([C@H](C)NC(C)=O)cc3)C2)nc1C(F)(F)F` [Example 4.36], inhibition was half-maximal at 1140 nM (IC50).

For the molecule `CC(=O)N[C@@H](C)c1ccc(OC2CN(c3ccc(F)c(C(F)(F)F)n3)C2)cc1` [Example 4.37], the IC50 worked out at 290 nM.

Turning to `CC(=O)N[C@@H](C)c1ccc(OC2CN(c3nc4ccccc4nc3C)C2)cc1` [Example 4.38], the IC50 is 3050 nM. This IC50 is about 11-fold higher than that of the molecule before. `CC(=O)N[C@@H](C)c1ccc(OC2CN(c3cncc(C(F)(F)F)c3)C2)cc1` [Example 4.40] showed an IC50 of 1050 nM.

The molecule `CC(=O)N[C@@H](C)c1ccc(OC2CN(c3nc(-c4ccccc4)no3)C2)cc1` [Example 4.41] showed an IC50 of 3480 nM. `CC(=O)N[C@@H](C)c1ccc(OC2CN(c3ncc(OCC4CC4(F)F)cn3)C2)cc1` (stereo partly drawn) [Example 4.42] showed an IC50 of 530 nM. Against the preceding molecule, the IC50 is about 6.6-fold lower. The same measure, in the same setting: then `CC(=O)N[C@@H](C)c1ccc(OC2CN(c3nc(C(F)(F)F)ccc3F)C2)cc1` [Example 4.43], with 530 nM.
